The values that follow come from patent publication US20260000642A1 (Tay Therapeutics Limited, priority 2022, published 2026).

The nature of data set [1]: Thermodynamic solubility in FaSSIF pH 6.5 buffer. In kind it is physicochemical. The note with it: thermodynamic from solid, FaSSIF pH 6.5, 25° C., Method 2 (LCMS). The source says:
BET protein inhibitors with a high aqueous solubility are in some embodiments promising oral drug candidates. Some of the exemplary compounds of the current disclosure have high solubility (measured in μM) in Fasted State Simulated Intestinal Fluid (FaSSIF) pH 6.5 buffer. The experimental methods and results (Table 4) are provided hereinafter.
Thermodynamic Solubility Assay, Method 1
FaSSIF v2 buffer is freshly prepared prior to use according to the suppliers' instructions and the pH adjusted to 6.5 using 1 M NaOH or 1 M HCl as required. From 1 mM working solution of test compound in DMSO, the λmax of the test compound is determined by scanning from 200 nm to 700 nm, in 1 nm steps with an EPOCH UV/Visible spectrophotometer (Biotek Instruments Inc.). A 12-point standard curve of compound concentration versus absorption at λmax is generated via two-fold serial dilutions of the 1 mM working solution with DMSO. Approximately 1 mg of test compound is accurately weighed into an Eppendorf tube and the appropriate volume of FaSSIF buffer is added to make a nominal concentration of 1 mg/mL. […]
FaSSIF buffer was prepared according to the suppliers' instructions and the pH adjusted to 6.5 using 1 M NaOH or 1 M HCl as required. […] The concentration of the test compound in the filtrate was determined by LCMS analysis with reference to the internal standards to determine the solubility in the buffer.

A short description of data set [2]: Plasma stability assay, rat plasma. In kind it is in vitro ADME. The note with it: 37° C., Method 2 (10 μM). The protocol: Exemplary compounds of the disclosure are stable upon incubation in mouse plasma. Stability is expressed as a % remaining after 120 minutes. The experimental methods and results (Table 2) are provided hereinafter.
Plasma Stability Assay, Method 1
From stock solution of compound in 10 mM DMSO, a working solution of 1 mM is prepared by diluting the compound in DMSO. To 398 μL of plasma pre-warmed at 37° C. for 15 minutes), 2 μL of working solution of compound is added, resulting in a final concentration of 5 μM (0.5% DMSO) for the compound. The sample is then incubated at 37° C. Aliquot is withdrawn at specified time-points (0, 15, 30, 60 and 120 mins). The reaction is stopped by addition of 450 μL cold acetonitrile containing internal standard (IS). […] Aliquots of the supernatant is analysed using LC-MS/MS. The percent remaining of the compound at each time point is calculated with respect to the control sample (0 min time-point).
Plasma Stability Assay, Method 2
A working solution of compound (500 μM) is prepared in DMSO (100%). To 735 μL of plasma, 15 μL of working solution of compound is added—resulting in a final concentration of 10 μM (2% DMSO) for the compound. The sample is then incubated at 37° C. Aliquot is withdrawn at time-points—0, 15, 30, 60, 90 and 120 mins. The reaction is stopped by using chilled acetonitrile containing internal standard (IS). The samples are centrifuged and the supernatants analyzed using LC-MS/MS. The percent remaining of the compound at each time point is calculated with respect to the control sample (0 min time-point).

Data set [3] addresses T1, BRD4 BD1 (Homo sapiens, UniProt O60885).
T1 construct: HEK293 cells were transfected using NanoLuc-BRD4-BD1 or NanoLuc-BRD4-BD2 fusion vectors; host or cells: HEK293
Kind of data set: NanoBRET bromodomain assay, NanoLuc-BRD4-BD1 fusion vector in HEK293 cells. The note with it: top concentration 10 μM. In kind it is cell-based. The text has this: (§1) Bromodomain Assay Procedure

Data set [4] deals with T2, BRD4 BD2 (Homo sapiens, UniProt O60885).
T2 construct: HEK293 cells were transfected using NanoLuc-BRD4-BD1 or NanoLuc-BRD4-BD2 fusion vectors; host or cells: HEK293
Kind of data set: NanoBRET bromodomain assay, NanoLuc-BRD4-BD2 fusion vector in HEK293 cells. It counts as cell-based. The note with it: NanoBRET, HEK293 cells, top concentration 10 μM.
From the text: as §1

In brackets after ≈: the same amount, converted by molar mass.

In data set [1], `CNC(=O)c1[nH]c(C(=O)NC2CCC(O)CC2)cc1OC(C)c1ccc(Cl)cc1` (single isomer, unassigned) [Example 29, 3-(1-(4-chlorophenyl)ethoxy)-N^5-(4-hydroxycyclohexyl)-N^2-methyl-1H-pyrrole-2,5-dicarboxamide] gave a thermodynamic solubility of 1230 µM (≈ 516 µg/mL). The “Plasma Stability (% remaining at 120 minutes) Rat” value in data set [2] came out at 89%. Further, the IC50 in data set [3] was not below 10 µM; in data set [4], 50 to 200 nM.
